Source: patent publication US5023084A, “Transdermal estrogen/progestin dosage unit, system and process” (Rutgers, The State University of New Jersey, priority 1988, dated 1991)

Experiment: Permeation of estradiol and levonorgestrel across adult male human cadaver skin
Format: in vitro ADME
Details: not given
Description: Layer 2 contains levonorgestrel and layer 4 contains 17-beta-estradiol.
The primary and secondary enhancing agents are incorporated into levonorgestrel containing layer 2. The amounts of primary and secondary enhancing agents specified in Table 16 are used in making dosage units.
Permeation rates (mcg/sq. cm/hr±S.D.) are determined using the in vitro procedure of Y. W. Chien et al. identified in Example 1 using human cadaver skin.

SMILES	Estradiol/Levonorgestrel Rate/Ratio	Permeation Rate, Estradiol	Permeation Rate, Levonorgestrel
CCCCCCCCCCO [n-Decyl Alcohol, n-decyl alcohol]	2.4 (0.21)		
CC1=C(/C=C/C(C)=C/C=C/C(C)=C/C(=O)O)C(C)(C)CCC1 [Retinoic Acid, retinoic acid]	1.4 (0.16)	0.22 (0.033) mcg/sq. cm/hr	0.159 (0.024) mcg/sq. cm/hr
CC1=C(/C=C/C(C)=C/C=C/C(C)=C/CO)C(C)(C)CCC1 [Retinol, retinol]	1.5 (0.11)	0.21 (0.040) mcg/sq. cm/hr	0.141 (0.019) mcg/sq. cm/hr

The remaining lines, values ahead:

Estradiol/Levonorgestrel Rate/Ratio	Permeation Rate, Estradiol	Permeation Rate, Levonorgestrel	SMILES
1.0 (0.07)	0.18 (0.024) mcg/sq. cm/hr	0.182 (0.029) mcg/sq. cm/hr	CC(=O)Oc1c(C)c(C)c2c(c1C)CCC(C)(CCCC(C)CCCC(C)CCCC(C)C)O2 (racemic) [dl-alpha-Tocopherol Acetate]
1.6 (0.10)	0.20 (0.031) mcg/sq. cm/hr	0.127 (0.021) mcg/sq. cm/hr	Cc1c(C)c2c(c(C)c1O)CCC(C)(CCCC(C)CCCC(C)CCCC(C)C)O2 (racemic) [dl-alpha-Tocopherol]
1.0 (0.13)	0.18 (0.030) mcg/sq. cm/hr	0.176 (0.027) mcg/sq. cm/hr	CCCCCCCCCCCCCCCC(=O)OC/C=C(C)/C=C/C=C(C)/C=C/C1=C(C)CCCC1(C)C [Retinyl Palmitate, retinyl palmitate]

Same assay, conditions: dosage unit with […] W/W n-decyl alcohol, with or without 5.0% secondary enhancer; S.D. in parentheses

SMILES	Permeation Rate, Estradiol	Permeation Rate, Levonorgestrel
CCCCCCCCCCO [n-Decyl Alcohol, n-decyl alcohol]	0.19 (0.031) mcg/sq. cm/hr	0.080 (0.017) mcg/sq. cm/hr

Experiment: not given
Details: oral; cited from earlier work

SMILES	17-beta-estradiol destroyed when taken orally
C[C@]12CC[C@@H]3c4ccc(O)cc4CC[C@H]3[C@@H]1CC[C@@H]2O [17-beta-estradiol]	over 90%
